Source: publication PMC11124852 (Pharmaceutics, 2024)
≈ marks a conversion by molar mass, not a printed value. Where “and” joins values, the source holds several entries; their conditions need not be identical. Equal entries are not always repeated.

Key:
[1] = test system: S protein and its host cell receptor ACE2; conditions: cited from earlier work
[2] = test system: S protein and its host cell receptor ACE2; conditions: cited from earlier work; remark: listed apart in the source
[3] = biological target: SARS-CoV-2 spike RBD to human ACE2 (Severe acute respiratory syndrome coronavirus 2, UniProt P0DTC2); test: biochemical; format: binding, SARS-CoV-2 / human; conditions: for IC50: IC50 (µM)
[4] = test system: mouse macrophage cell line J774.2; test: In vitro cytotoxicity, MTT method; conditions: for SI: selectivity index CC50/IC50
Experimental: (§1) The mouse macrophage cell line J774.2 (ATCC® TIB-67) was used for the evaluation of the in vitro cytotoxicity. Cells were cultured in RPMI medium supplemented with 10% SFB, […], and glutamine (2 mM) at 37 °C and in an atmosphere of 5% CO2. The medium was changed at intervals of every 2 to 3 days. For the cytotoxicity assays, 1 × 10^6 cells were incubated with different concentrations of the compounds (0.78 to 200 µM) at 37 °C for 48 h in an atmosphere of 5% CO2. Cells in the presence of the maximum concentration of DMSO (0.2%) were included as a negative control. The metabolic activity of the cells was determined using the MTT method. The percentage of cell viability was calculated, and the mean cytotoxic concentration (CC50) was determined via a Probit analysis. Three independent assays were performed in triplicate each. Finally, the selectivity index (SI) was calculated using the following formula CC50/IC50.

rats = conditions: concentrations of 0.03, 0.3, and 3%; cited from earlier work
S protein = conditions: block the S protein and inhibit protein-mediated intercellular fusion; cited from earlier work
meiobenthic nematodes = conditions: cited from earlier work
[5] = biological target: S protein with the ACE2 host receptor; conditions: cell-free ELISA-type assay; cited from earlier work
[6] = In vitro cytotoxicity, MTT method; conditions: mouse, J774.2 macrophage cells, CC50 (µM), macrophage cell line J774.2, 48 h, MTT; means of three experiments
Experimental: as §1

Row | SMILES | inhibition at 50 µM [3] [%] | IC50 [3] [µM] | SI [4] | other results
1 | CC1=C(C)C(=O)O[C@@H]([C@@H](C)[C@@]2(O)CC[C@H]3[C@@H]4[C@@H]5O[C@@H]5[C@@]5(O)CC=CC(=O)[C@]5(C)[C@H]4CC[C@@]32C)C1 [withanone] |  |  |  | IC50 [1]: 0.33 ng/mL (≈ 0.701 nM)
2 | CS(=O)(=O)c1cccc(C[C@H](NC(=O)c2c(Cl)cc3c(c2Cl)CCN(C(=O)c2ccc4ccoc4c2)C3)C(=O)O)c1 [sodium lifitegrast] |  |  |  | Kd [2]: 0.00192 µM
3 | CCN(Cc1cccc(S(=O)(=O)O)c1)c1ccc(C(=C2C=CC(=[N+](CC)Cc3cccc(S(=O)(=O)O)c3)C=C2)c2ccccc2)cc1 [DRI-3, guinea green B] | 99.65 ± 0.25 | 2.14 ± 0.97 | 93.4 and 93.45 | toxicity in rats (rats): initial growth depression in rats, as well as the appearance of malignant tumors
4 | C[C@]12CC[C@@H]3c4ccc(OC(=O)c5ccccc5)cc4CC[C@H]3[C@@H]1CC[C@@H]2O [estradiol benzoate] |  |  |  | IC50 (S protein): 1.02 µM; concentration from which significant toxicity starts (meiobenthic nematodes): ≥ 4.3 pg/mL
5 | COc1ccc2c(O[C@@H]3C[C@H]4C(=O)N[C@]5(C(=O)NS(=O)(=O)C6CC6)C[C@H]5/C=C\CCCCN(C)C(=O)[C@@H]4C3)cc(-c3nc(C(C)C)cs3)nc2c1C [simeprevir] |  |  |  | Kd [2]: 0.812 µM
6 | O=C(Nc1ccc2cc(S(=O)(=O)O)cc(O)c2c1)c1ccc(-c2ccc(C(=O)Nc3ccc4cc(S(=O)(=O)O)cc(O)c4c3)cc2)cc1 [DRI-C91005] |  |  |  | IC50 [5]: 0.16 µM
7 | CC(=O)Nc1ccc(OS(=O)(=O)c2ccc3c4c(cccc24)C(=O)N3)c2ccccc12 [DRI-5, CC(=O)Nc1ccc(OS(=O)(=O)c2ccc3NC(=O)c4cccc2c34)c2ccccc12] | 69.9 ± 1.2 | 13.7 ± 0.12 | 9.21 | CC50 at 48 h [6]: 126 ± 2.3 µM
8 | CCC(C)n1ncn(-c2ccc(N3CCN(c4ccc(OCC5COC(Cn6cncn6)(c6ccc(Cl)cc6Cl)O5)cc4)CC3)cc2)c1=O (stereo not drawn) [itraconazole] |  |  |  | IC50 (S protein): 0.45 µM
9 | O=C(Nc1ccc2c(O)cc(S(=O)(=O)O)cc2c1)Nc1ccc2c(O)cc(S(=O)(=O)O)cc2c1 [DRI-2, c12c(ccc(c1)NC(=O)Nc1cc3c(cc1)c(cc(c3)S(=O)(=O)O)O)c(cc(c2)S(=O)(=O)O)O] | 90.8 ± 1.7 | 8.84 ± 4.3 | 22.6 and 22.62 | 
10 | CCOc1ccc(NS(=O)(=O)c2ccc(NC(=O)c3ccc(-c4ccccc4)cc3)cc2)cc1 [DRI-4, S(=O)(=O)(Nc1ccc(cc1)OCC)c1ccc(NC(=O)c2ccc(cc2)c2ccccc2)cc1] | 76.4 ± 1 | 24.6 ± 2.5 | 8.14 | CC50 at 48 h [6]: > 200 µM
11 | O=C(Nc1ccc2c(O)c(/N=N/c3ccc(/N=N/c4ccc(S(=O)(=O)[O-])cc4)cc3)c(S(=O)(=O)[O-])cc2c1)c1ccccc1.[Na+].[Na+] [DRI-1, [Na+].[Na+].c1(/N=N/c2ccc(cc2)/N=N/c2c(cc3c(c2O)ccc(c3)NC(=O)c2ccccc2)S(=O)(=O)[O-])ccc(cc1)S(=O)(=O)[O-]] | 90.59 ± 0.54 | 13 ± 0.71 | 7.25 | CC50 at 48 h [6]: 94.5 µM; CC50 ([4]; macrophage cell line J774.2, 48 h, MTT, means of three experiments): 94.5 ± 0.96 µM
